Measured values reported in article PMC5622107, “Small molecule inhibition of cGAS reduces interferon expression in primary macrophages from autoimmune mice” (Nature Communications, 2017).
Read-outs that look alike come from different tables or passages of the source.

Target: T1, mouse cGAS (Mus musculus, UniProt Q8C6L5)
T1 construct: recombinant full-length mouse cGAS in reaction buffer; His6-SUMO (N, cleaved yes); made in house; host or cells: E. coli BL21(DE3) RIL
Experiment: RapidFire mass spectrometry (RF-MS) cGAS enzymatic assay, cGAMP product formation
Format: biochemical
Conditions: for IC50: read-out: IC50; for effect of structural modification on cGAS inhibitory potency: compared with RU.365
Experimental: The liquid was collected at the well bottom using centrifugation for 30 s at 180×g. […] Plates were centrifuged for 30 s at 180×g to collect all liquid at the bottom of the wells. […] The reaction was stopped by addition of 65 µl of 0.5% (v/v) formic acid per well. The plates were centrifuged for 30 s at 180×g and sealed with a Velocity11 PlateLoc thermal plate sealer.
The solvent used for loading/washing process was an aqueous solution of 5 mM ammonium acetate, pH 10. […] Each sample of approximately 35 µl were aspirated from a 384-well plate and separated using a Graphitic carbon Type D cartridge. After each sample was loaded onto the cartridge it was washed for 4 s at 1.5 ml min^−1 using the aqueous solvent. ATP, GTP and cGAMP were eluted for 5 s using the organic solvent at a flow rate of 1.5 ml min^−1. The cartridge was then re-equilibrated with the aqueous solvent for 5 s at a flow rate of 1.5 ml min^−1. All samples were analyzed using a negative ionization mode in the mass spectrometer, with a gas temperature of 350 °C, nebulizer pressure of 35 psig, gas flow rate of 15 l min^−1. […] The Agilent RapidFire Integrator software was used to calculate the area under the curve (AUC) of the extracted ion counts for each analyte. Data points represent values of product formation. Catalytic rates expressed as percent product formation were calculated using the AUC of cGAMP and using the AUC’s of ATP and GTP to normalize for variations in the capacity of the solid phase extraction column during a screening run, as shown in the following formula: product formation (%) = [(AUCcGAMP × 100)/(AUCcGAMP + ½ AUCATP + ½ AUCGTP)].
To determine the percent inhibition of mouse cGAS the data was normalized against the positive control (column 24) and negative control (column 23). […] The quality of the screen was assessed by Z′ factor[57] calculated as follows: Z′ = 1−[3∗(standard deviation positive control + standard deviation negative control)/(average positive control—average negative control)].

[1] = Supplementary Table 4, analogs of RU166365, m-cGAS inhibition
[2] = Supplementary Table 3, analogs more potent than RU166365

T1 sequence (Q8C6L5 whole entry): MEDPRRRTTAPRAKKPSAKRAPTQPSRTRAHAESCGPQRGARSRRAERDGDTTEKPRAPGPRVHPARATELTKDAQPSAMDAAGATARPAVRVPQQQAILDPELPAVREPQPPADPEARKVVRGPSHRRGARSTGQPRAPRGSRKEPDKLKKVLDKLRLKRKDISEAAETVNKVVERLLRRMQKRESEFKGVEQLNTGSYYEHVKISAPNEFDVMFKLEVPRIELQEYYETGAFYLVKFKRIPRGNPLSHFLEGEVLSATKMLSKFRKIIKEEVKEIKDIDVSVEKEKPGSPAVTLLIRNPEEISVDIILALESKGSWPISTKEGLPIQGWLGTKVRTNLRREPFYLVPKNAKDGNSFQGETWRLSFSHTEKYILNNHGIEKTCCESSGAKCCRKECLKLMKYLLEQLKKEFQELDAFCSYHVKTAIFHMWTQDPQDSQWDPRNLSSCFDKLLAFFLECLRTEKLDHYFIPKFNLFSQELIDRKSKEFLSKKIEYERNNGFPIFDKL

Structure (SMILES) | IC50 [1] | further results
Cc1nn(-c2nc3ccccc3s2)c(O)c1C1NC(=O)c2ccccc21 (stereo not shown) [RU320466] | > 25 µM | 
Cc1nn(-c2nc3cccc(Br)c3[nH]2)c(O)c1C1OC(=O)c2ccccc21 (stereo not shown) [RU320467] |  | IC50 [2]: 0.38 µM; effect of structural modification on cGAS inhibitory potency: increased inhibitory potency
COc1ccc2c(c1)C(=O)OC2c1c(C)nn(-c2nc3ccccc3[nH]2)c1O (stereo not shown) [RU320468] |  | IC50 [2]: 1.43 µM; effect of structural modification on cGAS inhibitory potency: only minor variations in potency
Cc1nn(-c2nc3ccccc3[nH]2)c(O)c1C1OC(=O)c2cc(Br)ccc21 (stereo not shown) [RU320469] |  | IC50 [2]: 1.32 µM; effect of structural modification on cGAS inhibitory potency: only minor variations in potency
Cc1nn(-c2nc3ncccc3[nH]2)c(O)c1C1OC(=O)c2ccccc21 (stereo not shown) [RU320502] | 11 µM | 
COc1cccc2c1C(c1c(C)nn(-c3nc4ccccc4[nH]3)c1O)OC2=O (stereo not shown) [RU320503] | > 25 µM | 
Cc1nn(-c2nc3ccccc3[nH]2)c(O)c1C1OC(=O)c2cccc(Br)c21 (stereo not shown) [RU320504] | 19.6 µM | 
COC(=O)c1cccc2c1C(=O)OC2c1c(C)nn(-c2nc3ccccc3[nH]2)c1O (stereo not shown) [RU320511] | 6.84 µM | 
COC(=O)c1ccc2c(c1)C(c1c(C)nn(-c3nc4ccccc4[nH]3)c1O)OC2=O (stereo not shown) [RU320512] | 8.58 µM | 
COC(=O)c1cccc2c1C(c1c(C)nn(-c3nc4ccccc4[nH]3)c1O)OC2=O (stereo not shown) [RU320513] | > 25 µM | 
CC(C)c1c(C2OC(=O)c3ccccc32)c(O)nn1-c1nc2ccccc2[nH]1 (stereo not shown) [RU320514] | > 25 µM | 
CC(C)c1nn(-c2nc3ccccc3[nH]2)c(O)c1C1OC(=O)c2ccccc21 (stereo not shown) [RU320515] | 7.16 µM | 
Cc1nn(-c2nc3ccccc3[nH]2)c(O)c1C1OC(=O)c2cccc(C(=O)O)c21 (stereo not shown) [RU320516] | > 25 µM | 
CC(=O)N1CCc2c(c(C)nn2-c2nc3ccccc3[nH]2)C1c1ccccc1 (stereo not shown) [RU320517] | > 25 µM | 
CC(=O)N1CCc2nn(-c3nc4ccccc4[nH]3)c(C)c2C1c1ccccc1 (stereo not shown) [RU320518] | > 25 µM | 
Cc1nn(-c2nc3cccc(C)c3[nH]2)c(O)c1C1OC(=O)c2ccccc21 (stereo not shown) [RU320519] |  | IC50 [2]: 1.16 µM; effect of structural modification on cGAS inhibitory potency: increased inhibitory potency
Cc1nn(-c2nc3cccc(Cl)c3[nH]2)c(O)c1C1OC(=O)c2ccccc21 (stereo not shown) [RU320520] |  | IC50 [2]: 0.62 µM; effect of structural modification on cGAS inhibitory potency: increased inhibitory potency
Cc1nn(-c2ncc(-c3ccccc3)[nH]2)c(O)c1C1OC(=O)c2ccccc21 (stereo not shown) [RU320574] | > 25 µM | 
Cc1nn(-c2nc3cccc(-c4ccccc4)c3[nH]2)c(O)c1C1OC(=O)c2ccccc21 (stereo not shown) [RU320575] | 2.35 µM | 
Cc1nn(-c2nc3ccc(C(=O)O)cc3[nH]2)c(O)c1C1OC(=O)c2ccccc21 (stereo not shown) [RU320577] | 18 µM | 
Cc1nn(-c2nc3ccc(-c4ccccc4)cc3[nH]2)c(O)c1C1OC(=O)c2ccccc21 (stereo not shown) [RU320578] | 3.36 µM | 
COC(=O)Cc1cccc2c1C(=O)OC2c1c(C)nn(-c2nc3ccccc3[nH]2)c1O (stereo not shown) [RU320579] | 2.46 µM | 
Cc1nn(-c2nc3cccc(C(F)(F)F)c3[nH]2)c(O)c1C1OC(=O)c2ccccc21 (stereo not shown) [RU320581] | 3.3 µM | 
Cc1nn(-c2nc3cc(Cl)cc(Cl)c3[nH]2)c(O)c1C1OC(=O)c2ccccc21 (stereo not shown) [RU320582] |  | IC50 [2]: 0.12 µM; effect of structural modification on cGAS inhibitory potency: increased inhibitory potency; improvement in potency (relative to RU.365): 17 fold
